Reference: ChEMBL document CHEMBL4725320 (Bioorg Med Chem Lett, 2020)
pEC50: −log10 of the molar value.

These molecules were tested against T1, Nuclear receptor subfamily 1 group D member 1 (Homo sapiens, UniProt P20393) (assay: Agonist activity at Rev-Erb alpha (unknown origin) by FRET assay).
T1 sequence (P20393 whole entry): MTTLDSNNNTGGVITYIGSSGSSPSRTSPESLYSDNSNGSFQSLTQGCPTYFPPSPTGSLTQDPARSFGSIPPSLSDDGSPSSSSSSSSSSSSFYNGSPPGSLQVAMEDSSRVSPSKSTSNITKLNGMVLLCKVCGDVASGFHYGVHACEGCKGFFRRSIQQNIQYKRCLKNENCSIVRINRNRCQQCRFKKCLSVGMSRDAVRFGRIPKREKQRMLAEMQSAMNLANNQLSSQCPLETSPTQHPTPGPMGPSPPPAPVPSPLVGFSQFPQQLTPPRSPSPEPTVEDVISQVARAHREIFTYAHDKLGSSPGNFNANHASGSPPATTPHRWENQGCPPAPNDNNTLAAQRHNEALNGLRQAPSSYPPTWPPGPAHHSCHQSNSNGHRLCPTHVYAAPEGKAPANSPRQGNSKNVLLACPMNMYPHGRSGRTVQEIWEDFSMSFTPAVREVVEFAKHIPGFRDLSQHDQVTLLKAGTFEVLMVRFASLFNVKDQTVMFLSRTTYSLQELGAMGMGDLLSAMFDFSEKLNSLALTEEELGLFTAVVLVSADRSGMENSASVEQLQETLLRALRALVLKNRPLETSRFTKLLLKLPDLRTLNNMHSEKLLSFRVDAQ
Format: single protein
`Cn1nc(Oc2cc(C(F)(F)F)ccc2-c2ccsc2Cl)c2sccc2c1=O` gave a pEC50 of 6.28.
`FC(F)(F)c1ccc(-c2ccc3ncc(Cl)n3c2)c(Oc2nn3ccnc3c3ccsc23)c1` gave a pEC50 of 5.26.
Molecule `CC(C)(C)Oc1ccc(OC[C@@H]2Cc3cc(F)ccc3CN2C(=O)c2cccc3ccccc23)cc1` has a pEC50 of 7.17.
`Cc1cc(Cl)cc(CN(Cc2ccc(Cl)cc2)Cc2ccc([N+](=O)[O-])s2)c1` was tested, and the pEC50 was 7.30.
Molecule `FC(F)(F)c1ccc(-c2cccnc2)c(Oc2ccc3nnc(Cl)n3n2)c1` has a pEC50 of over 6.00.
In the case of `CCCCCNC(=O)N1CCC(CN(Cc2ccc(Cl)cc2)Cc2ccc([N+](=O)[O-])s2)C1` (stereo not given) [SR9011], the pEC50 was 6.15.
`Cc1cc(F)ccc1-c1ccc(C(F)(F)F)cc1Oc1nn(C)c(=O)c2ccsc12` was tested, and the pEC50 was 5.95.
In the case of `FC(F)(F)c1ccc(-c2cncnc2)c(Oc2ccc3nnc(Cl)n3n2)c1`, the pEC50 was over 5.30.

Each molecule was assayed against T1, Nuclear receptor subfamily 1 group D member 1 (assay: Agonist activity at Rev-Erb alpha (unknown origin) by BMAL1-luciferase reporter assay).
With `O=C(c1cccc2ccccc12)N1Cc2ccccc2CC1CNCc1ccccc1` (stereo not given) the pEC50 was 5.52.

The molecules below were run against Nuclear receptor subfamily 1 group D member 2 (Homo sapiens) (UniProt Q14995) (assay: Antagonist activity at Rev-Erb beta (unknown origin) by RORE-luciferase reporter assay).
Chain of Nuclear receptor subfamily 1 group D member 2 (Homo sapiens) (Q14995 whole entry, looked up): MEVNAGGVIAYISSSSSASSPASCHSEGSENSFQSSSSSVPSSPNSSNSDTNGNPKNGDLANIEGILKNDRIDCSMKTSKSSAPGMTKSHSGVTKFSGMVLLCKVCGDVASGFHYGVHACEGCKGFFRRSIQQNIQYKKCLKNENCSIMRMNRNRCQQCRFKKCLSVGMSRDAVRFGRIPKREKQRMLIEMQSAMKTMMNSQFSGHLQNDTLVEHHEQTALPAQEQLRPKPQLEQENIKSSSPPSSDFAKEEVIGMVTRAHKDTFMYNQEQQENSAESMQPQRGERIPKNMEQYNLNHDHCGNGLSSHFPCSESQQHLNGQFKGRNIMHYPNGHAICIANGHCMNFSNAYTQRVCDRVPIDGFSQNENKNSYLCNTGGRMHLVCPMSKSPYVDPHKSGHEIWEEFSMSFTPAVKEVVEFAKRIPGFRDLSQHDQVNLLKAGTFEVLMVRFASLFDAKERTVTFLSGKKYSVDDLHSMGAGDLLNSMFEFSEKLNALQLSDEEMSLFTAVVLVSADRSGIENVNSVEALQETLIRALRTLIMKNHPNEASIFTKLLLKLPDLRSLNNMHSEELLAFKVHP
`CN1CCN(Cc2cc(CNC3(c4ccccc4F)CCCC3)ccc2O)CC1` was tested, and the pEC50 was 4.52.

What follows are molecules tested against T1, Nuclear receptor subfamily 1 group D member 1 (assay: Inverse agonist activity at Rev-Erb alpha LBD (unknown origin) by FRET assay).
Molecule `COCCNc1oc(-c2ccc(N(C)Cc3ccc(Cl)cc3)cc2)nc1C#N` has a pEC50 of 6.82.

Each molecule was assayed against T1, Nuclear receptor subfamily 1 group D member 1 (assay: Antagonist activity at Rev-Erb alpha (unknown origin) by BMAL1-luciferase reporter assay).
`CCOC(=O)C1Cc2ccccc2CN1C(=O)c1ccc(SC)s1` (stereo not given) was tested, and the pEC50 was 6.33.
`Cc1cc(Cl)cc(CN(Cc2ccc(Cl)cc2)Cc2ccc([N+](=O)[O-])s2)c1` showed a pEC50 of 5.69.
`CCOC(=O)C1Cc2ccccc2CN1C(=O)c1ccc(C)o1` (stereo not given) was tested, and the pEC50 was 5.89.
`O=C(Nc1ccccc1)N1CCC(CN(Cc2ccc(Cl)cc2)Cc2ccc([N+](=O)[O-])s2)CC1` was tested, and the pEC50 was 5.89.
